Laboratory results published in patent US20110009351A1, “SCREENING ASSAY TO IDENTIFY CORRECTORS OF PROTEIN TRAFFICKING DEFECTS” (Traffick Therepeutics Inc., priority 2007, published 2011).
“Also recorded” adds a separate entry of the source. Counter-ions that a name gives are not always drawn.

Key:
F508del CFTR = target: T1, F508del CFTR (Homo sapiens, UniProt P13569, DEL508-508); assay: YFP fluorescence quenching functional assay (iodide influx), HEK293 cells with F508del CFTR and halide sensitive YFP; format: cell-based; conditions: 10 μM, 24 h
T1 construct: expressed in transfected cells; host or cells: HEK293 Griptite cells stably expressing F508del CFTR, transiently transfected with halide-sensitive eYFP
Procedure, shortened: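 HEK293 Griptite cells stably expressing F508del CFTR, transiently transfected with halide-sensitive eYFP, treated 24 h with 10 μM compound in triplicate, then stimulated 20 min with 25 μM forskolin, 45 μM IBMX and 50 μM genistein. YFP quench after 50 mM iodide imaged 15 times over 40 s on 150-300 cells/well.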

ΔF508-CFTR [1] = target: ΔF508-CFTR (Homo sapiens, UniProt P13569, DEL508-508); format: cell-based; set-up: which was then ligated into full length pNUT-CFTR linearized using Hpa1 and Pml1; expressed in transfected cells
Procedure, shortened: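 BHK cells stably expressing 3HA-tagged ΔF508-CFTR (tags in fourth extracellular loop) treated with compound at 20 μM final for 24 h at 37° C. Surface ΔF508-CFTR measured on fixed, non-permeabilised cells by anti-HA/FITC immunofluorescence (488/510 nm), relative to untreated-well background; hits retested in duplicate, intrinsically fluorescent compounds excluded.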

ΔF508-CFTR [2] = target: T2, ΔF508-CFTR (Mus musculus, UniProt P26361, DEL508-508); assay: ex vivo treatment of ileum from ΔF508-CFTR mice, Isc response to forskolin+genistein; conditions: 20 μM, 5-6 h ex vivo
T2 construct: from tissue; host or cells: ileal mucosa of homozygous ΔF508 mice (A11 ex vivo, A12 after gavage); salivary secretion in the living mouse (A13)
Protocol: Glafenine was tested ex vivo and in vivo using ileum from homozygous Δ508-CFTR mice (CFTR^tm1 Eur; van Doorninck et al., 1995) and wild-type littermates controls. Mice were 14-17 weeks old, weighed 24-30 g, and were genotyped by standard PCR methods using tail DNA. The mice were kept in a pathogen-free environment in the animal facility at McGill University and fed a high protein diet (SRM-A, Hope Farms, Woerden, NL) modified to contain pork instead of beef. All procedures followed Canadian Institutes of Health Research (CIHR) guidlines and were approved by the faculty Animal Care Committee. For ex vivo experiments, ileal mucosa was stripped of muscle and incubated in William's E-Glutamax medium supplemented with insulin (10 μg/ml), 100 U/ml penicillin, and 100 μg/ml streptomycin and dexamethasone (1.6 ng/ml) containing 0.1% DMSO (control) or DMSO containing glafenine for 5 h. The tissue was then rinsed repeatedly and mounted in Ussing chambers to measure […]. For in vivo experiments, mice were feed once per day by gavage with saline containing glafenine (50 mg/kg) or vehicle alone (0.1% DMSO). After 2 days of glafenine treatment the mice were euthanized under CO2, the intestine was dissected and the short circuit current was measured as described above.

ΔF508-CFTR (Homo sapiens, UniProt P13569, DEL508-508), sequence (P13569 with tags, fused parts or gaps DEL508-508): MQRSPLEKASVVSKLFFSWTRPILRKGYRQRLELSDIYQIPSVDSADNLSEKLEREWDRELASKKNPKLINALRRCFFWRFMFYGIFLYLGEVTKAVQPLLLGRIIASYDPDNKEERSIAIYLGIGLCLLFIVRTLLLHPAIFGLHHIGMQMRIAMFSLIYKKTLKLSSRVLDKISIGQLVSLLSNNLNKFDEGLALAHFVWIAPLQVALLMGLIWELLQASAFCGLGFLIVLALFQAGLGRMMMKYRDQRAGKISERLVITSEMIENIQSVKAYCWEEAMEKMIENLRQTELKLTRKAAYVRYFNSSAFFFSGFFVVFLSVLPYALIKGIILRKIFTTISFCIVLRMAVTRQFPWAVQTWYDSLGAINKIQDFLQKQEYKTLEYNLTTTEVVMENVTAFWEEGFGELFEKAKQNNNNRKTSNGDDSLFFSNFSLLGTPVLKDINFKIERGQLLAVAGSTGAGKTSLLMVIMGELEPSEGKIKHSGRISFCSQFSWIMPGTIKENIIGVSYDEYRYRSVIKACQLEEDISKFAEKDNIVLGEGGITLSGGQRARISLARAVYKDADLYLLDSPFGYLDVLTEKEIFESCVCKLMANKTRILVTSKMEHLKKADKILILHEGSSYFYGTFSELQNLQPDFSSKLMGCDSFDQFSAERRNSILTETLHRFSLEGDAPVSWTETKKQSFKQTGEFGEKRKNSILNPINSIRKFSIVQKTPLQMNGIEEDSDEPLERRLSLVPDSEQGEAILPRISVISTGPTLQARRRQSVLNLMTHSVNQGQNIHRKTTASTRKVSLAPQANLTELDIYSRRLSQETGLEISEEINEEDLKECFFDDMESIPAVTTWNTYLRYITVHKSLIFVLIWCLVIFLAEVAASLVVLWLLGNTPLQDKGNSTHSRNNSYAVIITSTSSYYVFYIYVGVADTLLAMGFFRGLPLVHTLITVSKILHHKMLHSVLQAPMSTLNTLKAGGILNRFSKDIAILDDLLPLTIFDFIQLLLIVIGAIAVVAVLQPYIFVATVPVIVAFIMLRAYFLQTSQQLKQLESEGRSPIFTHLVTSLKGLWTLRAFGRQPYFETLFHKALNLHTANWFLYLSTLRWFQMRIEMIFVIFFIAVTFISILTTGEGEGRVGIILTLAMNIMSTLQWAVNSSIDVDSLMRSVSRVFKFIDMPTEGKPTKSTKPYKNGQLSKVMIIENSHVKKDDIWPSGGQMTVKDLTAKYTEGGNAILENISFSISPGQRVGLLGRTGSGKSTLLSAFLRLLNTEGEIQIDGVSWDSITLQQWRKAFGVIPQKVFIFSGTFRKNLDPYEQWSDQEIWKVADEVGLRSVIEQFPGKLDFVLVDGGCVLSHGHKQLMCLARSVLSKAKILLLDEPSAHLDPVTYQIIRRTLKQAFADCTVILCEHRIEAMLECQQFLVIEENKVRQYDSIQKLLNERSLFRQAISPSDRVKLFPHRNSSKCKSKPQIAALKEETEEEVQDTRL
T1 sequence (P13569 with tags, fused parts or gaps DEL508-508): as above
T2 sequence (P26361 with tags, fused parts or gaps DEL508-508): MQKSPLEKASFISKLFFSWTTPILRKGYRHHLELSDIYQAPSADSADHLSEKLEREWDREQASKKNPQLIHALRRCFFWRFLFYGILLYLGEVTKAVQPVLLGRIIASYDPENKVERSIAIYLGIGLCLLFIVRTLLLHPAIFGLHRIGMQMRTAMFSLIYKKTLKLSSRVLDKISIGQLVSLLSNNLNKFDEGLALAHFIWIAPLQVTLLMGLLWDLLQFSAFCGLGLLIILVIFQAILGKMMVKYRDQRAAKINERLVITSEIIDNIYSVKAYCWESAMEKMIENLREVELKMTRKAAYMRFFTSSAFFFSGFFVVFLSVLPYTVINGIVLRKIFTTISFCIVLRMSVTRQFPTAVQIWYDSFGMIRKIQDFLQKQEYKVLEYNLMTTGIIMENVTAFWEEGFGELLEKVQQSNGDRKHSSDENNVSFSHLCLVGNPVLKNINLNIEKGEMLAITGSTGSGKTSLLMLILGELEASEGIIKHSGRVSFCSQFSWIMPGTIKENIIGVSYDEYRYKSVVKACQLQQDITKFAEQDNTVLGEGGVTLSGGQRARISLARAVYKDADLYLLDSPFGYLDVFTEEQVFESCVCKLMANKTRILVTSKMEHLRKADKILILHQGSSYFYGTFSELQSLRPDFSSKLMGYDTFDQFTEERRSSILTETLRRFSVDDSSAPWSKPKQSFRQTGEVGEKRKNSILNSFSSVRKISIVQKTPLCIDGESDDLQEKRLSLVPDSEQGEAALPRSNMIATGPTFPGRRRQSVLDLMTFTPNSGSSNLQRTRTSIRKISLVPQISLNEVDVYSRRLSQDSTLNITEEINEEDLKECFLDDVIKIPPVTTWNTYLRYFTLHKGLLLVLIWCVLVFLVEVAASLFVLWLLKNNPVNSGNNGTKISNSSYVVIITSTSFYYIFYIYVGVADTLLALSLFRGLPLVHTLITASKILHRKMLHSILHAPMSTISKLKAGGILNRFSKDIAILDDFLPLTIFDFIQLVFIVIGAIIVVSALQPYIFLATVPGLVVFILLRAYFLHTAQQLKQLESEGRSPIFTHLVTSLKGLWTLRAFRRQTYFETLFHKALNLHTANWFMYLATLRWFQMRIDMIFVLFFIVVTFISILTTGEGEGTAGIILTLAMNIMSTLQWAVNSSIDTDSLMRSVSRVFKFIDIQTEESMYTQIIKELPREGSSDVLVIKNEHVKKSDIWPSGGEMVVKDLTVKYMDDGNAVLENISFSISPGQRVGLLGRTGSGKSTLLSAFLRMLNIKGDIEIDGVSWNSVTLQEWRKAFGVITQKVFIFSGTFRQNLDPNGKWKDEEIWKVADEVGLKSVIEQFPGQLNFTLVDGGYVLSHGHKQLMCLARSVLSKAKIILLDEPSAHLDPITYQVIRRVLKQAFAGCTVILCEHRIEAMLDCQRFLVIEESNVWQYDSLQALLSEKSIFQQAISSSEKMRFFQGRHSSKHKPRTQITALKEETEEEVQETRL

O=C(OCC(O)CO)c1ccccc1Nc1ccnc2cc(Cl)ccc12 (stereo not shown) [Glafenine hydrochloride, 2-[(7-chloro-4-quinolinyl)amino]benzoic acid 2,3-dihydroxypropyl ester]
functional correction in YFP quenching assay (F508del CFTR): test positive in each case; also recorded: enhanced the cAMP-stimulated iodide influx | remaining activity at 10 µM (F508del CFTR; HEK293, nc = 100% pc = 69.2, read-out: % YFP quench): 80% | ΔF508-CFTR surface expression increase, normalized to BHK cells expressing wild-type CFTR (ΔF508-CFTR [1]; 10 μM, 24 h, compared with vehicle alone): 40% | hit in screen (class letter) (ΔF508-CFTR [1]; Prestwick library, initial corrector assay, BHK cells): W (Medium and weak hits were defined as compounds giving a cell fluorescence signal that was between 2 and 3 or 1 and 2 standard deviations, respectively, above untreated control wells) | hit in screen (score) (ΔF508-CFTR [1]; Prestwick library, initial corrector assay, standard deviations above untreated controls): 1.3 | forskolin+genistein-stimulated current versus vehicle alone (ΔF508-CFTR [2]): ~12 fold | restoration of the secretory response observed in wild-type mice (ΔF508-CFTR [2]): ~46% and ≈ 46%
